# Reference: patent US20230399342A1 (Incyte Corporation, priority 2022, published 2023)
# Tests used:
# [1] = biological target: DGKα (Homo sapiens (Human), UniProt P23743); assay: In vitro DGKα inhibition assay (ADP-Glo); format: biochemical; conditions: His-tagged human recombinant enzyme, 0.1 nM DGKα, 50 μM ATP, 20 μM DLG, 90 minute incubation
# How it was run: (§1)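 His-tagged human DGKα (0.1 nM, 50 μM ATP) or DGKζ (0.4 nM, 30 μM ATP), each with 20 μM DLG, in Tris pH 7.5 buffer with CHAPS, Mg2+, Ca2+.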
# [2] = biological target: DGKζ (Homo sapiens (Human), UniProt Q13574); assay: In vitro DGKζ inhibition assay (ADP-Glo); format: biochemical; conditions: His-tagged human recombinant enzyme, 0.4 nM DGK, 30 μM ATP, 20 μM DLG, 90 minute incubation
# How it was run: as §1
# Chain of DGKζ (Q13574 whole entry): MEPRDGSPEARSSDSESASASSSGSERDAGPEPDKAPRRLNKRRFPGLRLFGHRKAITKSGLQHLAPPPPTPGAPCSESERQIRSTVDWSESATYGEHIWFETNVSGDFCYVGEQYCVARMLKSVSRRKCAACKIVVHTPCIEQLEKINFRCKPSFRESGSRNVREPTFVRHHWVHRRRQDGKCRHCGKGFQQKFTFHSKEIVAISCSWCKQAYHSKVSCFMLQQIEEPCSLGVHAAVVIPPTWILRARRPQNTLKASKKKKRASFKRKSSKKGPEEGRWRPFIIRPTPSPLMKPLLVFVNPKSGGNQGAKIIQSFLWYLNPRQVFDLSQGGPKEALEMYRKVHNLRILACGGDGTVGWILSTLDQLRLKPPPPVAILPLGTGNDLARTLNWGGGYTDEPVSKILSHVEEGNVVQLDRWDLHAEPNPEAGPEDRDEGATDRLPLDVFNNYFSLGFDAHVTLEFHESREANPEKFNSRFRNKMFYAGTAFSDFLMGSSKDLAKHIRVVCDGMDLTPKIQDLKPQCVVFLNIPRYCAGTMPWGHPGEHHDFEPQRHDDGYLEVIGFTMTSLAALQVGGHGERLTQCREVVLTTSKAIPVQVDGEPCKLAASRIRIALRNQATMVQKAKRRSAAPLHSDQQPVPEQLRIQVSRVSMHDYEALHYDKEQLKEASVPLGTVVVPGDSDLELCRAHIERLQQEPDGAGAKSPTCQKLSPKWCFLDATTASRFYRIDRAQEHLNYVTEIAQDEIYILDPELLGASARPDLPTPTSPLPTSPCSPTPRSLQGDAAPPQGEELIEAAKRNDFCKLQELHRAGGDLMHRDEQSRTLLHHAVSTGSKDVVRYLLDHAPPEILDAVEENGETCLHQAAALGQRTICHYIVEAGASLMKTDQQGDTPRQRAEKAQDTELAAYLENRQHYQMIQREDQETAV
# Chain of DGKα (P23743 whole entry): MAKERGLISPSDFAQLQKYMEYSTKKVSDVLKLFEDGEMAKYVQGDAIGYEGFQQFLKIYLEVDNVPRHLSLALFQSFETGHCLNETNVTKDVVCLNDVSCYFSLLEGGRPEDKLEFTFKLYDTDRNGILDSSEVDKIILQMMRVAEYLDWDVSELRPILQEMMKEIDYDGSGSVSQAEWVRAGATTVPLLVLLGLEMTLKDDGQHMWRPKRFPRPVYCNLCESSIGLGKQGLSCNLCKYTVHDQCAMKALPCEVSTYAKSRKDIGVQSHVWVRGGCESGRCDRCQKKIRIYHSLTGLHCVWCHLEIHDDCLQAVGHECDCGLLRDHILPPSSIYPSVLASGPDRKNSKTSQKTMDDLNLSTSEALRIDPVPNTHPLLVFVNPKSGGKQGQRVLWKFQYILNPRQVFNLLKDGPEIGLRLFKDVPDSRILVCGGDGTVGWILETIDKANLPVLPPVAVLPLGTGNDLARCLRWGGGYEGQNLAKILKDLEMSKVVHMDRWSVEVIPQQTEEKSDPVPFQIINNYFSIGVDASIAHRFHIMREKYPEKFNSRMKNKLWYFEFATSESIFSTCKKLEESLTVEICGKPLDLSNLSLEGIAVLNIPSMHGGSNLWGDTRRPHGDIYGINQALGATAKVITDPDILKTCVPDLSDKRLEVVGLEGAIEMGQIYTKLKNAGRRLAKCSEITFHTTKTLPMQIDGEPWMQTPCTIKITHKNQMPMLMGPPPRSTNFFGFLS
IC50 [1] [nM],IC50 [2] [nM],SMILES
≤ 20,≤ 20,"Cc1nc2c(N3C[C@@H](C)N(C(c4ccc(Br)cc4)c4ccc(Br)cc4)C[C@@H]3C)nc3nncn3c2n1C[C@@H]1CCCO1 [Example 108, 4-((2S,5R)-4-(Bis(4-bromophenyl)methyl)-2,5-dimethylpiperazin-1-yl)-2-methyl-1-(((S)-tetrahydrofuran-2-yl)methyl)-1H-[1,2,4]triazolo[3,4-b]purine]"
≤ 20,> 2000,"C[C@@H]1CN(c2cc3nncn3c3ccsc23)[C@@H](C)CN1C(c1ccc(F)cc1)c1ccc(F)cc1 [Example 11, 5-((2S,5R)-4-(Bis(4-fluorophenyl)methyl)-2,5-dimethylpiperazin-1-yl)thieno[2,3-e][1,2,4]triazolo[4,3-a]pyridine]"
≤ 20,≤ 20,"Cc1nc2c(N3C[C@@H](C)N([C@@H](c4ccc(Br)cc4)C(C)C)C[C@@H]3C)nc3nncn3c2n1C[C@@H]1CCCO1 [Example 139, 4-((2S,5R)-4-((R)-1-(4-bromophenyl)-2-methylpropyl)-2,5-dimethylpiperazin-1-yl)-2-methyl-1-(((S)-tetrahydrofuran-2-yl)methyl)-1H-[1,2,4]triazolo[3,4-b]purine]"
≤ 20,≤ 20,"Cc1nc2c(N3C[C@@H](C)N(C(c4ccc(Cl)c(C(F)(F)F)c4)C4CC(F)(F)C4)C[C@@H]3C)nc3nncn3c2n1C[C@@H]1CCCO1 (stereo partly drawn) [Example 59, 4-((2S,5R)-4-((4-Chloro-3-(trifluoromethyl)phenyl)(3,3-difluorocyclobutyl)methyl)-2,5-dimethylpiperazin-1-yl)-2-methyl-1-(((S)-tetrahydrofuran-2-yl)methyl)-1H-[1,2,4]triazolo[3,4-b]purine]"
≤ 20,≤ 20,"CC[C@@H]1CN(c2nc3nncn3c3c2nnn3C[C@H]2CCCO2)[C@@H](C)CN1C(c1ccc(F)cc1)c1ccc(F)cc1 [Example 32, 4-((2S,5R)-4-(Bis(4-fluorophenyl)methyl)-5-ethyl-2-methylpiperazin-1-yl)-1-(((R)-tetrahydrofuran-2-yl)methyl)-1H-[1,2,3]triazolo[4,5-e][1,2,4]triazolo[4,3-a]pyrimidine]"
≤ 20,≤ 20,"C[C@@H]1CN(c2nc3nncn3c3c2nnn3C[C@H]2CCCO2)[C@@H](C)CN1C(c1ccc(Br)cc1)c1ccc(Br)cc1 [Example 110, 4-((2S,5R)-4-(Bis(4-bromophenyl)methyl)-2,5-dimethylpiperazin-1-yl)-1-(((R)-tetrahydrofuran-2-yl)methyl)-1H-[1,2,3]triazolo[4,5-e][1,2,4]triazolo[4,3-a]pyrimidine]"
≤ 20,≤ 20,"Cc1nc2c(N3C[C@@H](C)N([C@@H](c4ccc(C(F)(F)F)cc4)C(C)C)C[C@@H]3C)nc3nncn3c2n1C[C@@H]1CCCO1 [Example 68, 4-((2S,5R)-2,5-dimethyl-4-((R)-2-methyl-1-(4-(trifluoromethyl)phenyl)propyl)piperazin-1-yl)-2-methyl-1-(((S)-tetrahydrofuran-2-yl)methyl)-1H-[1,2,4]triazolo[3,4-b]purine]"
≤ 20,≤ 20,"C[C@H]1CN(C(c2ccc(F)cc2)c2ccc(F)cc2)[C@H](CC#N)CN1c1nc2nncn2c2scnc12 [Example 14, 2-((2R,5S)-1-(Bis(4-fluorophenyl)methyl)-5-methyl-4-(thiazolo[4,5-e][1,2,4]triazolo[4,3-a]pyrimidin-4-yl)piperazin-2-yl)acetonitrile]"
≤ 20,≤ 20,"[2H]c1nc2c(N3C[C@@H](CC)N(C(c4ccc(F)cc4)c4ccc(F)cc4)C[C@@H]3C)nc3nncn3c2n1CCN(C)C [Example 38, 2-(4-((2S,5R)-4-(Bis(4-fluorophenyl)methyl)-5-ethyl-2-methylpiperazin-1-yl)-1H-[1,2,4]triazolo[3,4-b]purin-1-yl-2-d)-N,N-dimethylethan-1-amine]"
≤ 20,≤ 20,"Cc1nc2c(N3C[C@@H](CO)N(C(c4ccc(Cl)cc4)c4ccc(Cl)cc4)C[C@@H]3C)nc3nncn3c2n1C[C@@H]1CCCO1 [Example 137, ((2S,5S)-1-(Bis(4-chlorophenyl)methyl)-5-methyl-4-(2-methyl-1-(((S)-tetrahydrofuran-2-yl)methyl)-1H-[1,2,4]triazolo[3,4-b]purin-4-yl)piperazin-2-yl)methanol]"
≤ 20,≤ 20,"Cc1nc2c(N3C[C@@H](C)N([C@H](c4ccc(Cl)cc4)C(C)C)C[C@@H]3C)nc3nncn3c2n1C[C@@H]1CCCO1 [Example 88, 4-((2S,5R)-4-((S)-1-(4-Chlorophenyl)-2-methylpropyl)-2,5-dimethylpiperazin-1-yl)-2-methyl-1-(((S)-tetrahydrofuran-2-yl)methyl)-1H-[1,2,4]triazolo[3,4-b]purine]"
≤ 20,≤ 20,"C[C@@H]1CN(c2nc3nncn3c3c2ncn3CCN(C)C)[C@@H](C)CN1C(c1ccc(Br)cc1)C1CC(F)(F)C1 (stereo partly drawn) [Example 65, 2-(4-((2S,5R)-4-((4-Bromophenyl)(3,3-difluorocyclobutyl)methyl)-2,5-dimethylpiperazin-1-yl)-1H-[1,2,4]triazolo[3,4-b]purin-1-yl)-N,N-dimethylethan-1-amine]"
≤ 20,≤ 20,"C[C@@H]1CN(c2nc3nncn3c3c2ncn3CCN(C)C)[C@@H](C)CN1C(c1ccc(C(F)F)cc1)c1ccc(C(F)F)cc1 [Example 100, 2-(4-((2S,5R)-4-(Bis(4-(difluoromethyl)phenyl)methyl)-2,5-dimethylpiperazin-1-yl)-1H-[1,2,4]triazolo[3,4-b]purin-1-yl)-N,N-dimethylethan-1-amine]"
≤ 20,≤ 20,"Cc1nc2c(N3C[C@@H]([C@H](C)O)N(C(c4ccc(F)cc4)c4ccc(F)cc4)C[C@@H]3C)nc3nncn3c2n1C[C@@H]1CCCO1 [Example 124, (S)-1-((2S,5S)-1-(bis(4-fluorophenyl)methyl)-5-methyl-4-(2-methyl-1-(((S)-tetrahydrofuran-2-yl)methyl)-1H-[1,2,4]triazolo[3,4-b]purin-4-yl)piperazin-2-yl)ethan-1-ol]"
≤ 20,≤ 20,"Cc1cc(C(C2CC(F)(F)C2)N2C[C@H](C)N(c3nc4nncn4c4c3nc(C)n4C[C@@H]3CCCO3)C[C@H]2C)ccc1C(F)(F)F (stereo partly drawn) [Example 55, 4-((2S,5R)-4-((3,3-Difluorocyclobutyl)(3-methyl-4-(trifluoromethyl)phenyl)methyl)-2,5-dimethylpiperazin-1-yl)-2-methyl-1-(((S)-tetrahydrofuran-2-yl)methyl)-1H-[1,2,4]triazolo[3,4-b]purine]"
≤ 20,≤ 20,"COc1ccc([C@@H](C(C)C)N2C[C@H](C)N(c3nc4nncn4c4c3nc(C)n4C[C@@H]3CCCO3)C[C@H]2C)cc1 [Example 78, 4-((2S,5R)-4-((R)-1-(4-methoxyphenyl)-2-methylpropyl)-2,5-dimethylpiperazin-1-yl)-2-methyl-1-(((S)-tetrahydrofuran-2-yl)methyl)-1H-[1,2,4]triazolo[3,4-b]purine]"
≤ 20,20 to 200,"C[C@@H]1CN(c2nc3nncn3c3c2ncn3CC2CC2)[C@@H](C)CN1[C@H](c1ccc(F)cc1)c1ccc(OC(F)(F)F)cn1 [Example 25, 1-(cyclopropylmethyl)-4-((2S,5R)-4-((R)-(4-fluorophenyl)(5-(trifluoromethoxy)pyridin-2-yl)methyl)-2,5-dimethylpiperazin-1-yl)-1H-[1,2,4]triazolo[3,4-b]purine]"
≤ 20,≤ 20,"CC[C@@H]1CN(c2nc3nncn3c3c2nc(C)n3C[C@@H]2CCCO2)[C@@H](C)CN1[C@H](c1ccc(OC(F)(F)F)cc1)C(C)C [Example 130, 4-((2S,5R)-5-ethyl-2-methyl-4-((S)-2-methyl-1-(4-(trifluoromethoxy)phenyl)propyl)piperazin-1-yl)-2-methyl-1-(((S)-tetrahydrofuran-2-yl)methyl)-1H-[1,2,4]triazolo[3,4-b]purine]"
≤ 20,≤ 20,"Cc1nc2c(N3C[C@@H](C)N(C(c4ccc(C(F)(F)F)cc4)C4CC(F)(F)C4)C[C@@H]3C)nc3nncn3c2n1C[C@@H]1CCCO1 (single isomer, unassigned) [Example 43]"
≤ 20,200 to 2000,"Cc1nnc2nc(N3C[C@@H](C)N(C(c4ccc(F)cc4)c4ccc(F)cc4)C[C@@H]3C)c3ncsc3n12 [Example 2, 4-((2S,5R)-4-(Bis(4-fluorophenyl)methyl)-2,5-dimethylpiperazin-1-yl)-8-methylthiazolo[4,5-e][1,2,4]triazolo[4,3-a]pyrimidine]"
≤ 20,≤ 20,"Cc1nc2c(N3C[C@@H](C)N(C(c4ccc(C(F)(F)F)cc4)C4CCC(F)(F)CC4)C[C@@H]3C)nc3nncn3c2n1C[C@@H]1CCCO1 (stereo partly drawn) [Example 117, 4-((2S,5R)-4-((4,4-Difluorocyclohexyl)(4-(trifluoromethyl)phenyl)methyl)-2,5-dimethylpiperazin-1-yl)-2-methyl-1-(((S)-tetrahydrofuran-2-yl)methyl)-1H-[1,2,4]triazolo[3,4-b]purine]"
≤ 20,≤ 20,"Cc1nc2c(N3C[C@@H](C)N([C@H](c4cccc(Cl)c4)C(C)C)C[C@@H]3C)nc3nncn3c2n1C[C@@H]1CCCO1 [Example 96, 4-((2S,5R)-4-((S)-1-(3-Chlorophenyl)-2-methylpropyl)-2,5-dimethylpiperazin-1-yl)-2-methyl-1-(((S)-tetrahydrofuran-2-yl)methyl)-1H-[1,2,4]triazolo[3,4-b]purine]"
≤ 20,≤ 20,"COc1ccc([C@H](C(C)C)N2C[C@H](C)N(c3nc4nncn4c4c3nc(C)n4C[C@@H]3CCCO3)C[C@H]2C)cc1 [Example 77, 4-((2S,5R)-4-((S)-1-(4-Methoxyphenyl)-2-methylpropyl)-2,5-dimethylpiperazin-1-yl)-2-methyl-1-(((S)-tetrahydrofuran-2-yl)methyl)-1H-[1,2,4]triazolo[3,4-b]purine]"
